The values below come from PubChem BioAssay (NCI).

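Each compound was tested at five concentrations against cells in 96-well plates for 48 hours. GI50 is the concentration that inhibits growth by half. The concentration for full growth arrest is given as TGI.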 Bounds are passed on as bounds.

Test systems include IGROV1 ovarian; MALME-3M melanoma; MOLT-4 leukemia; SF-539 CNS; SN12C renal; BT-549 breast; HOP-62 NSCLC; MDA-MB-231 breast; NCI/ADR-RES ovarian; PC-3 prostate.
What all share (assay): inhibition of tumour cell growth, NCI panel, 48 h

For `CN(C)c1nc(N(C)C)nc(N(C)CN(C)c2ccc(Cl)cc2)n1`, the TGI with IGROV1 ovarian, in the assay on MALME-3M melanoma, in the assay with MOLT-4 leukemia, with SF-539 CNS and in the assay with SN12C renal was greater than 100 µM in each case.
As for `CN(c1cc2ncc(=O)[nH]c2cc1NC(N)=NCc1ccc(Cl)cc1)C1CCCCC1`, the GI50 with BT-549 breast was 7.4 µM; in the assay with HOP-62 NSCLC, 8.84 µM; in the assay with IGROV1 ovarian, 6.93 µM; with MALME-3M melanoma, 8.5 µM; with MDA-MB-231 breast, 2.46 µM; in the assay with MOLT-4 leukemia, 6.59 µM. Further, the GI50 with NCI/ADR-RES ovarian was 23.1 µM; with PC-3 prostate it was 5.94 µM; with SF-539 CNS, 7.68 µM; in the assay with SN12C renal, 7.23 µM. The TGI in the assay with BT-549 breast amounted to 14.6 µM; with HOP-62 NSCLC it was 19.6 µM; in the assay with IGROV1 ovarian it was 15 µM; with MALME-3M melanoma, 17.5 µM; with MDA-MB-231 breast it was 9.04 µM; in the assay with MOLT-4 leukemia it was 14.6 µM. For the same compound, the TGI stood at 50 µM with NCI/ADR-RES ovarian, 12.5 µM in the assay with PC-3 prostate, 14.6 µM in the assay with SF-539 CNS and 15.5 µM with SN12C renal.
Regarding `COc1ccc2c(c1)CCN=C2Cc1cc(OC)c(OC)cc1CCCl`, the TGI with BT-549 breast is greater than 100 µM; with HOP-62 NSCLC, 49.6 µM; in the assay with IGROV1 ovarian, greater than 100 µM; with MALME-3M melanoma, 73.8 µM; in the assay with MDA-MB-231 breast, greater than 100 µM; in the assay on MOLT-4 leukemia, greater than 100 µM. The TGI is greater than 100 µM with NCI/ADR-RES ovarian, greater than 100 µM in the assay on PC-3 prostate, 65.7 µM with SF-539 CNS and greater than 100 µM in the assay with SN12C renal.
For the compound `Cc1nc2c(n1C)C(=O)c1nc(CBr)[nH]c(=O)c1C2=O`, the TGI with IGROV1 ovarian, in the assay on MOLT-4 leukemia, in the assay on SF-539 CNS and in the assay on SN12C renal was greater than 100 µM in each case.
For `O=C(O)c1cc(=O)[nH]c(SCc2ccccc2)n1`, the TGI in the assay with BT-549 breast, with HOP-62 NSCLC, with IGROV1 ovarian, with MALME-3M melanoma, with MDA-MB-231 breast and in the assay on MOLT-4 leukemia was greater than 100 µM in each case. Moreover, the TGI in the assay on NCI/ADR-RES ovarian, in the assay with PC-3 prostate and with SN12C renal was greater than 100 µM each time.
For `CC(=O)Oc1c(C)c2c(O)c3c1C1=C(OCOC1=C(C)C3=O)/C(C)=C\C(C)(O)C(O)C(C)C(O)C1C(=O)OC(C(C)C1O)C(C)(O)/C=C/C=C(C)C(=O)N2` (stereo unspecified), the TGI with BT-549 breast is greater than 100 µM; in the assay with HOP-62 NSCLC, greater than 100 µM; with IGROV1 ovarian, 52.7 µM; in the assay with MALME-3M melanoma, greater than 100 µM; in the assay with MDA-MB-231 breast, greater than 100 µM; in the assay on MOLT-4 leukemia it was greater than 100 µM. The TGI is greater than 100 µM with NCI/ADR-RES ovarian, greater than 100 µM in the assay with PC-3 prostate, 46.8 µM in the assay on SF-539 CNS and greater than 100 µM in the assay on SN12C renal.
For the compound `O=Cc1cc([N+](=O)[O-])no1`, the TGI in the assay on BT-549 breast was greater than 100 µM; in the assay on HOP-62 NSCLC it was greater than 100 µM; in the assay with IGROV1 ovarian, greater than 100 µM; in the assay with MDA-MB-231 breast, 64.3 µM; in the assay with MOLT-4 leukemia, 81.5 µM; with NCI/ADR-RES ovarian it was greater than 100 µM. The TGI in the assay on PC-3 prostate and in the assay with SN12C renal was greater than 100 µM each time.
Consider `Cc1ccc(NP(=O)(Oc2ccccc2)N(CCCl)CCCl)cc1` (stereo unspecified), for which the TGI with HOP-62 NSCLC, in the assay with IGROV1 ovarian, with MALME-3M melanoma, with MOLT-4 leukemia, with SF-539 CNS and in the assay with SN12C renal was greater than 100 µM in each case.
`O=C(C=P(c1ccccc1)(c1ccccc1)c1ccccc1)c1cccc(-c2cccc([N+](=O)[O-])c2)c1`: the TGI with BT-549 breast is greater than 100 µM; in the assay on HOP-62 NSCLC, greater than 100 µM; in the assay with IGROV1 ovarian it was 38.4 µM; in the assay with MALME-3M melanoma it was 9.28 µM; in the assay with MDA-MB-231 breast, 7.04 µM; with MOLT-4 leukemia, 5.37 µM. Moreover, the TGI was greater than 100 µM in the assay with NCI/ADR-RES ovarian, 20.9 µM with PC-3 prostate, 54.4 µM in the assay with SF-539 CNS and greater than 100 µM in the assay with SN12C renal.
For `c1ccc(C2CC(c3cccc(Nc4ccncc4)c3)=NN2c2ccccc2)cc1` (stereo unspecified), the GI50 in the assay on BT-549 breast is 1.88 µM; in the assay on IGROV1 ovarian it was 1.68 µM; in the assay on MALME-3M melanoma it was 1.57 µM; in the assay with MDA-MB-231 breast, 1.61 µM; in the assay on MOLT-4 leukemia, 2.02 µM; with NCI/ADR-RES ovarian it was 1.74 µM. Further, the GI50 is 1.69 µM with PC-3 prostate, 1.71 µM with SF-539 CNS and 1.65 µM with SN12C renal. Moreover, the TGI in the assay on BT-549 breast came to 3.87 µM; in the assay with IGROV1 ovarian, 3.18 µM; in the assay with MALME-3M melanoma it was 3.02 µM; in the assay on MDA-MB-231 breast it was 3 µM; in the assay with MOLT-4 leukemia, 4.83 µM; in the assay with NCI/ADR-RES ovarian, 3.54 µM. Besides, the TGI in the assay with PC-3 prostate was found to be 3.58 µM; with SF-539 CNS, 3.12 µM; with SN12C renal, 3.06 µM.
For the compound `O=S1(=O)C(c2ccccc2)C(N2CCCCC2)C1C1CC2c3ccccc3C1c1ccccc12` (stereo unspecified), the TGI in the assay with BT-549 breast, in the assay on HOP-62 NSCLC, in the assay on IGROV1 ovarian, in the assay with MALME-3M melanoma, in the assay with MDA-MB-231 breast and in the assay on MOLT-4 leukemia was greater than 100 µM throughout. Also, the TGI with NCI/ADR-RES ovarian, with PC-3 prostate, in the assay with SF-539 CNS and in the assay with SN12C renal was greater than 100 µM throughout.
For `CSc1nc(NC2OCC(OC(C)=O)C(OC(C)=O)C2OC(C)=O)c(N=C(C)C(C)=O)c(=O)[nH]1` (stereo unspecified), the TGI in the assay on IGROV1 ovarian, in the assay on MALME-3M melanoma, with MOLT-4 leukemia, with SF-539 CNS and in the assay on SN12C renal was greater than 100 µM each time.
For the compound `OC1(c2ccc(Cl)cc2)c2c(ccc3c2OCO3)C2=NCCN21` (stereo unspecified), the TGI with BT-549 breast was greater than 100 µM; with HOP-62 NSCLC it was greater than 100 µM; in the assay on IGROV1 ovarian, 54.9 µM; with MALME-3M melanoma it was 21.2 µM; with MDA-MB-231 breast, 91.8 µM; with MOLT-4 leukemia, greater than 100 µM. For the same compound, the TGI with NCI/ADR-RES ovarian, with PC-3 prostate, in the assay on SF-539 CNS and in the assay on SN12C renal was greater than 100 µM each time.
As for `CCOC(=O)C[C@@H]1C2(C=C[C@@]13CO3)OCC(C)(C)CO2`, the TGI in the assay on BT-549 breast, with HOP-62 NSCLC, in the assay with IGROV1 ovarian, in the assay with MALME-3M melanoma, with MDA-MB-231 breast and with MOLT-4 leukemia was greater than 100 µM throughout. The TGI in the assay with NCI/ADR-RES ovarian, in the assay on PC-3 prostate, in the assay with SF-539 CNS and in the assay with SN12C renal was greater than 100 µM each time.
`CCN(CC)CCCC(C)Nc1ccnc2cc3ccccc3cc12` (stereo unspecified): the TGI with BT-549 breast is 29.2 µM; in the assay with HOP-62 NSCLC it was greater than 100 µM; in the assay with IGROV1 ovarian, 50.7 µM; in the assay on MALME-3M melanoma, 45.1 µM; in the assay with MDA-MB-231 breast, greater than 100 µM; in the assay on MOLT-4 leukemia, greater than 100 µM. In addition, the TGI with NCI/ADR-RES ovarian, with PC-3 prostate, with SF-539 CNS and in the assay with SN12C renal was greater than 100 µM in each case.
Take `CCCCCCCCCCCCCCCc1ccc(OCC(O)CO)cc1` (stereo unspecified): the TGI in the assay with HOP-62 NSCLC was greater than 100 µM; with IGROV1 ovarian, greater than 100 µM; with MALME-3M melanoma, 46.8 µM; in the assay with MOLT-4 leukemia, greater than 100 µM; in the assay on SF-539 CNS, greater than 100 µM; in the assay with SN12C renal, 33.2 µM.
With `N#Cc1c(NC(=S)Nc2ccc(Cl)cc2)sc2c1CCCC2`, the TGI was greater than 100 µM with BT-549 breast; greater than 100 µM in the assay with IGROV1 ovarian; greater than 100 µM with MALME-3M melanoma; greater than 100 µM in the assay with MDA-MB-231 breast; 33.8 µM in the assay on MOLT-4 leukemia; greater than 100 µM with NCI/ADR-RES ovarian. The TGI with PC-3 prostate is greater than 100 µM; in the assay on SN12C renal, 50.4 µM.
For the compound `Nc1cc2c(nnn2C2OC(COCc3ccccc3)C(OCc3ccccc3)C2OCc2ccccc2)c(=O)[nH]1` (stereo unspecified), the TGI was 90.3 µM in the assay with BT-549 breast; greater than 100 µM in the assay on HOP-62 NSCLC; greater than 100 µM with IGROV1 ovarian; greater than 100 µM in the assay on MALME-3M melanoma; greater than 100 µM in the assay with MDA-MB-231 breast; 38.9 µM in the assay on MOLT-4 leukemia. The TGI was greater than 100 µM with NCI/ADR-RES ovarian, greater than 100 µM in the assay on PC-3 prostate, 69.5 µM in the assay on SF-539 CNS and 40.3 µM in the assay on SN12C renal.
As for `CC(C)CCC[C@@H](C)[C@H]1CC[C@H]2[C@@H]3CC[C@H]4C[C@H](N)CC[C@]4(C)[C@H]3CC[C@]12C`, the TGI is 67.6 µM with BT-549 breast; 70.7 µM with HOP-62 NSCLC; 54.3 µM with IGROV1 ovarian; 38.7 µM with MALME-3M melanoma; 8.22 µM with MDA-MB-231 breast; greater than 100 µM in the assay on MOLT-4 leukemia. Also, the figures for the TGI in the assay on NCI/ADR-RES ovarian, in the assay on PC-3 prostate and in the assay with SN12C renal were 95.3 µM, 20.2 µM and greater than 100 µM, respectively.
With `CS(=O)(=O)OC1CN2CCC1CC2` (stereo unspecified), the TGI with BT-549 breast, with HOP-62 NSCLC, in the assay on IGROV1 ovarian, in the assay on MALME-3M melanoma, in the assay on MDA-MB-231 breast and in the assay with MOLT-4 leukemia was greater than 100 µM each time. In addition, the TGI with NCI/ADR-RES ovarian, with PC-3 prostate and with SN12C renal was greater than 100 µM throughout.
For `O=C(C[C@H](NC(=O)OCc1ccccc1)C(=O)NC1Cc2ccccc2OC1=O)OCc1ccccc1` (stereo partly specified), the TGI was greater than 100 µM with BT-549 breast; greater than 100 µM in the assay with HOP-62 NSCLC; greater than 100 µM in the assay with IGROV1 ovarian; greater than 100 µM with MALME-3M melanoma; 71.6 µM in the assay with MDA-MB-231 breast; greater than 100 µM with MOLT-4 leukemia. In addition, the TGI in the assay on NCI/ADR-RES ovarian was greater than 100 µM; with PC-3 prostate, 70.2 µM; in the assay with SN12C renal, greater than 100 µM.
